Source: the Biogen ADME set (Fang et al. 2023)
Values after ≈ are worked out from the molar mass of the structure shown.

Conditions: for aqueous solubility: pH 6.8

| SMILES | intrinsic clearance, human liver microsomes | intrinsic clearance, rat liver microsomes | aqueous solubility | MDR1-MDCK efflux ratio |
| --- | --- | --- | --- | --- |
| CCN(C(=O)CO)[C@H]1CN(/C(=N\C#N)Nc2cccc(OC(F)F)c2)N=C1c1ccc(Cl)c(Cl)c1 | 45 mL/min/kg | 184 mL/min/kg | 2.33 µg/mL (≈ 4.44 µM) |  |
| Cc1cc2c(C(N)=O)cccc2n1-c1nc2c(c(NCc3ccccc3)n1)COCC2 |  |  | 36.4 µg/mL (≈ 88 µM) |  |
| O=C(c1ccc(F)cc1)N1Cc2nc[nH]c2C[C@H]1c1nc(-c2ccc(Cl)cc2)no1 | 21.3 mL/min/kg | 133 mL/min/kg | 20.2 µg/mL (≈ 47.7 µM) |  |
| COc1ccccc1NC(=O)CSc1nc(C(C)(C)C)nc2ccccc12 |  |  | 0.27 µg/mL (≈ 0.708 µM) | 1.26 |
| Cc1cccc(NC(=O)CN(C)Cc2nc3ccccc3c(=O)[nH]2)c1C | 54 mL/min/kg | 571 mL/min/kg |  | 17.6 |
| Cc1cccc(N(C)C(=S)Oc2ccc3ccccc3c2)c1 |  |  | 0.7 µg/mL (≈ 2.28 µM) |  |
| Nc1nn(C(=O)Cc2ccc(F)cc2)c2cccc(F)c12 | 16.7 mL/min/kg | 62.9 mL/min/kg |  |  |
| Cc1cccc2ncn(CCc3ncc[nH]3)c(=O)c12 | ≤ 4.74 mL/min/kg | 2240 mL/min/kg |  | 6.44 |
| CCNC1=N[C@@H]2[C@@H](O)[C@@H](O)[C@H](CO)O[C@@H]2S1 | ≤ 4.74 mL/min/kg | ≤ 10.7 mL/min/kg |  |  |
| O=C(c1cc(-c2cccc(Cl)c2)on1)N1CCC(n2cccc2)CC1 | 15.4 mL/min/kg | 274 mL/min/kg | 10.5 µg/mL (≈ 29.4 µM) | 0.698 |
| COc1ccncc1NCc1ccc2c(c1)OCCO2 | 17.8 mL/min/kg | 570 mL/min/kg | 31.1 µg/mL (≈ 114 µM) | 0.666 |
| Cc1ccnc(NC(=O)c2ccnc(C)n2)c1 | 137 mL/min/kg | 569 mL/min/kg |  |  |
| O=C(Nc1ccc(C(=O)O)c(O)c1)c1ccc(NC(=O)c2cccs2)cc1 | ≤ 4.74 mL/min/kg | ≤ 10.7 mL/min/kg | 54.3 µg/mL (≈ 142 µM) | 0.572 |
| Cc1cc(C(=O)NCC2(c3ccccc3)CC2)on1 | ≤ 4.74 mL/min/kg | 109 mL/min/kg | 40.1 µg/mL (≈ 157 µM) |  |
| CN1CCCn2c1cc(OCc1cc(F)c(Oc3ccc(C(F)(F)F)nc3)c(F)c1)nc2=O | 19.6 mL/min/kg | 126 mL/min/kg |  | 12 |
| COCc1cc(-c2nc(CCc3ccccc3)n[nH]2)ccc1OC | 70.4 mL/min/kg | 1100 mL/min/kg | 24.9 µg/mL (≈ 77.1 µM) | 2.29 |
| Cc1ccccc1S(=O)(=O)Nc1c(C)ccnc1Cl | ≤ 4.74 mL/min/kg | 194 mL/min/kg |  | 0.795 |
| Cc1n[nH]c(C)c1CCCN(C)c1cncc(C(=O)N(C)C)n1 | 87.4 mL/min/kg | 529 mL/min/kg |  | 93.7 |
| Cc1nc2c(cnn2C(C)C)c(C)c1CCC(=O)O | ≤ 4.74 mL/min/kg | ≤ 10.7 mL/min/kg | 25.7 µg/mL (≈ 98.3 µM) |  |
| CCCNC(=O)c1ccc(OC2CCN(C)CC2)cc1 | ≤ 4.74 mL/min/kg | 35.1 mL/min/kg |  |  |
| CC(C)N(C)S(=O)(=O)NCCCc1nc2cc(Cl)ccc2[nH]1 | 134 mL/min/kg | 2500 mL/min/kg |  | 16.7 |
| Cn1cc(NC(=O)c2ccc(OCC3CCOCC3)nc2)cn1 | ≤ 4.74 mL/min/kg | 41.2 mL/min/kg | 50.1 µg/mL (≈ 158 µM) | 2.95 |
| Cc1cc(C)n(-c2cccc(NC(=O)c3ccc(F)c(F)c3)c2)n1 | 31.3 mL/min/kg | 353 mL/min/kg | 1.61 µg/mL (≈ 4.92 µM) | 0.649 |
| COc1ccc2nc(NCc3cnn(C)c3)ccc2c1 | 28.5 mL/min/kg | 88.6 mL/min/kg | 34.8 µg/mL (≈ 130 µM) | 0.532 |
